Assays:
[1] = test system: HCT-116 cells expressing human cytochrome P450 reductase (CYPOR); experiment: Flow cytometry of EF5 retention in vitro; format: cell-based; conditions: increasing EF5 concentrations, oxic, monolayer
Protocol: In vitro: 1×10^6 cells were drug treated (EF5 or PIMO) for 1-2 hrs, harvested by trypsinisation, fixed with 4% buffered PFA (pH 7.4, 1 hr). In vivo: Tumour xenograft cells were isolated by enzymatic dissociation (2.5 mg/ml pronase, 1 mg/ml collagenase and 0.2 mg/ml DNAse) and immediately fixed with 4% buffered PFA (pH 7.4, 1 hr). and transferred to 70% ethanol (−20° C., overnight). Cells were resuspended in 1% BSA/PBS and permeabilised with 0.2% Triton X-100 (30 min, RT), blocked in 10% BSA/PBS (30 min, RT) and resuspended in primary antibody for 2 hr (37° C.). The primary antibody was either anti-EF5 mouse monoclonal (ELK 3.51) conjugated with CY5 or Alexa-488 diluted to 100 μg/ml in blocking buffer (according to instruction in Koch C., 2008, Rad Res, 169 (6): 677-688) or Hypoxyprobe-1 (Chemicon Int) mouse monoclonal anti-pimonidazole antibody (clone 4.3.11.3) conjugated with FITC and diluted 1:100 in blocking buffer. Cells were washed in blocking buffer and resuspended in blocking buffer containing 100 μg/ml RNAase and analysed using a Becton Dickinson FACscan flow cytometer (MA, USA) with Cell Quest software using forward scatter and side scatter to gate out cell debris and tumour cells. Integrated fluorescence measurements were recorded for 30,000 single non-debris events.

[2] = test system: nfsA-expressing cells in mixed HCT116 xenografts; experiment: Immunohistochemical detection of EF5 binding in tumour xenograft sections; format: in vivo, mice; conditions: constant exposure time 0.5 s
Protocol: FIG. 16 (A) illustrates immunohistochemical detection of EF5 binding in human tumour xenografts harbouring 0%, 3%, 12% or 20% HCT-116^nfsA expressing cells. FIG. 16 (A) further illustrates Fluorescent microscope pictures of tumour sections, and FIG. 16 (B) illustrates flow cytometry histograms of EF5/CY5 fluorescence to confirm % NfsA expressing cells of individual tumour.
In vivo: mice were treated with 60 mg/kg EF5 (ip) and left for 24 hrs. Tumour tissue was excised, fixed in 10% formalin dissolved in PBS (48 h), transferred to 70% ethanol and embedded in paraffin. Sections (5 μm) were cut, mounted onto poly-L-lysine coated glass slides and heat fixed for 1 h at 60° C. Sections were dewaxed, rehydrated, washed in Milli-Q water and then rinsed in 0.01 M Tris buffered saline (TBS, pH 7.4). Antigen retrieval was achieved by boiling samples in 10 mM sodium citrate buffer pH 6 for 25 min. Sections were washed with TBS containing 0.1% Tween-20 (TBS-T) and blocked with 1% mouse serum in TBS. After rinsing, the samples were incubated for 2 hr at room temperature with 100 μg/ml anti-EF5 (Alexa-488) primary antibody diluted in PBS containing 0.2% Tween-20. After rinsing in with TBS-T the coverslips were mounted with Prolong Gold antifade (Invitrogen) and sealed with nail varnish. […] Images were analysed and overlaid using Adobe Photoshop software (Adobe Photoshop 4.0).

[3] = test system: HCT116 cells expressing E. coli NfsA; format: cell-based, human; conditions: 18 hrs exposure, 5 days regrowth; IC50 of WT versus NTR-expressing cells
Protocol: (§1) FIGS. 10 (B) and 10 (C) illustrates the results of evaluation of 2-nitroimidazole clinical imaging candidates with E. coli and non-E. coli NTRs. Stably-expressing cells were treated with varying concentration of 2-nitroimidazole prodrugs diluted in αMEM+5% FCS+P/S. Cells were exposed to prodrug for 18 hrs, washed and left to regrow for 5 days. IC50 was determined as the concentration of prodrug required to inhibit cell growth by 50% of untreated controls. IC50 values are mean for ≥2 independent experiments. WT:NTR ratio-ratio of IC50 means from WT cells versus NTR-expressing cell lines.
as §1, with “FIG. 21” for “FIGS. 10 (B) and 10 (C)”, “antiproliferative activity (IC50 value)” for “the results”, “prodrug” for “evaluation of 2-nitroimidazole clinical imaging”, “nitroreductases.” for “NTRs.”, “prodrug” for “2-nitroimidazole prodrugs”, “ratio-interexperimental ratio” for “ratio-ratio”
Isolated NTR gene sequences were subject to PCR and introduced in the bicistronic plasmid F579 via Gateway cloning (Invitrogen) as described by Prosser et al. (2010, Biochem Pharmacol, 79, 678-687). Stably transfected cell lines were created by transfection of the relevant plasmid using FuGENE 6 Transfection Reagent (Roche). Transfected cell populations were maintained by passage in puromycin
Cells were passaged in alpha-Minimal Essential Media, (αMEM; Gibco) supplemented with 5% FBS, (GIBCO NZ) without antibiotics. Cell were passaged for <3 months from frozen stocks and confirmed Mycoplasma free (PCR-ELISA; Roche Diagnostics). Cells were aliquoted into the 96-well plate (100 μL/well) and cells were left to attach (≥4 hrs). […] Plates were read on an ELx 808 Absorbance Microplate Reader (Bio-Tek Instruments). Absorbance was measured at 490 nm and 450 nm (final absorbance 490-450). […]

Question: `O=C(Cn1ccnc1[N+](=O)[O-])NCC(F)(F)C(F)(F)F` [EF5, 2-(2-nitro-1H-imidazol-1-yl)-N-(2,2,3,3,3-pentafluoropropyl)acetamide] was tested. Which “activity towards EF5, dose-response (in words)” value [1] did it give?
Answer: Its value is “minimal activity”.

Question: And the “EF5 retention versus hypoxic activation in HCT-116 parental cells (in words)” value [2]?
Answer: Its value is “clearly superior”.

Question: What about the “WT:NTR ratio (maximum growth inhibitory effect)” value [3] of the same compound?
Answer: The value was 1600 fold.
